Laboratory results taken from patent US12054478B2, “Compositions and methods for inhibiting phenyl triazole MLL1-WDR5 protein-protein interaction” (China Pharmaceutical University, priority 2018, dated 2024).
≈ marks a conversion by molar mass, not a printed value. Read-outs that look alike come from different tables or passages of the source. One block for each compound: values may come before it.

Tests used:
[1] = test system: Molm-13 human acute myeloid leukemia cells; assay: Anti-proliferation on leukemia cells, Molm-13; type: cell-based; settings: Homo sapiens; Molm-13 cells
Procedure: (§1) Anti-proliferation experiments were conducted with leukemia cells with some of the compounds in the present disclosure.

[2] = test system: MV4-11 human acute leukemia monocyte; assay: Anti-proliferation on leukemia cells, MV4-11; type: cell-based; settings: Homo sapiens, MV4-11; MV-411 cells
Procedure: as §1

[3] = test system: K562 human chronic myeloid leukemia cells; assay: Anti-proliferation on leukemia cells, K562; type: cell-based
Procedure: Anti-proliferation experiments were conducted with leukemia cells with some of the compounds in the present disclosure. Table 3 listed the results of evaluation of the anti-proliferation activities for some of the compounds from this present disclosure conducted with acute leukemia cells, wherein MV4-11 is human acute leukemia monocyte, Molm-13 is human acute myeloid leukemia cells, and K562 is human chronic myeloid leukemia cells.

[4] = target: MLL1-WDR5 protein-protein interactions (Homo sapiens, UniProt P61964); assay: Inhibition of MLL1-WDR5 protein-protein interaction; type: binding
Solubility at pH 7.4 = type: physicochemical; settings: aqueous medium at pH 7.4 (water solubility), aqueous buffer
[5] = Table 1, read-out: MLL1-WDR5 PPI inhibition activity
[6] = Table 2, compounds of this present disclosure
[7] = Table 2, compounds of this present disclosure, read-out: MLL1-WDR5 PP1 inhibition activity
[8] = Table 2, biphenyl comparison compounds
[9] = Table 2, biphenyl comparison compounds (Eur. J. Med. Chem. 2016, 124, 480-489), read-out: MLL1-WDR5 PP1 inhibition activity

- GI50 [1]: 18.5 ± 1.9 µM
- IC50 [4, 5]: < 0.01 µM
- GI50 [2]: 14.3 ± 1.7 µM
- GI50 [3]: 12.9 ± 0.2 µM
Structure (SMILES): Cc1c(F)c(N)cc(C(=O)Nc2cc(-n3cc(NC(=O)C4CCNCC4)nn3)ccc2N2CCN(C)CC2)c1Cl [Example 15, N-(1-(3-(5-amino-2-chloro-4-fluoro-3-Methylbenzoylamino)-4-(4-methylpiperazingroup)phenyl)-1H-1,2,3-Triazopyridine-4-group) Piperidine-4-formamide]

- GI50 [1]: 7.3 ± 0.8 µM
- IC50 [4, 5]: < 0.05 µM
- GI50 [2]: 10.4 ± 1.1 µM
- GI50 [3]: 21.3 ± 2.4 µM
Structure (SMILES): Cc1c(F)c(N)cc(C(=O)Nc2cc(-n3cc(NC(=O)CCO)nn3)ccc2N2CCN(C)CC2)c1Cl [Example 17, 5-amino-2-chloro-4-fluoro-N-(5-(4-(3-Hydroxypropionylamino)-1H-1,2,3-triazol-1-group)-2-(4-methylpiperazin-1-group)phenyl)-3-methyl benzoylamino]

- GI50 [1]: 16.8 ± 2 µM
- IC50 [4, 5]: < 0.05 µM
- GI50 [2]: 13.7 ± 1.4 µM
- GI50 [3]: 13.5 ± 1.2 µM
Structure (SMILES): Cc1c(F)c(N)cc(C(=O)Nc2cc(-n3cc(CCN(C)C)nn3)ccc2N2CCN(C)CC2)c1Cl [Example 19, 5-amino-2-chloro-N-(5-(4-(2-(Dimethylamino)ethyl)-1H-1,2,3-triazol-1-group)-2-(4-methylpiperazin-1-groupgroup)phenyl)-4-fluoro-3-Methyl benzoyl]

- GI50 [1]: 10.1 ± 1.3 µM
- GI50 [2]: 8.6 ± 0.6 µM
- GI50 [3]: 10.5 ± 2 µM
Structure (SMILES): CCOc1cn(-c2ccc(N3CCN(C)CC3)c(NC(=O)c3cc(N)c(F)c(C)c3Cl)c2F)nn1 [Example 20]

- GI50 [1]: 17.9 ± 1.6 µM
- IC50 [4, 5]: < 0.05 µM
- GI50 [3]: 27.7 ± 0.3 µM
Structure (SMILES): Cc1c(F)c(O)cc(C(=O)Nc2c(N3CCN(C)CC3)ccc(-n3cc(NC(=O)CCN)nn3)c2C)c1Cl [Example 23]

- solubility (Solubility at pH 7.4; [6]): 30 µg/mL (≈ 67.6 µM)
- IC50 [4, 7]: 0.0657 µM
Structure (SMILES): Cc1c(F)c(N)cc(C(=O)Nc2cc(-n3ccnn3)ccc2N2CCN(C)CC2)c1Cl [drawing 12]

- solubility (Solubility at pH 7.4; [6]): 110 µg/mL (≈ 240 µM)
- IC50 [4, 7]: 0.0903 µM
Structure (SMILES): Cc1c(F)c(N)cc(C(=O)Nc2cc(-n3cc(N)nn3)ccc2N2CCN(C)CC2)c1Cl [drawing 14]

- solubility (Solubility at pH 7.4; [8]): 9.5 µg/mL (≈ 20.3 µM)
- IC50 [4, 9]: 0.0887 µM
Structure (SMILES): Cc1c(F)c(N)cc(C(=O)Nc2cc(-c3ccc(N)cc3)ccc2N2CCN(C)CC2)c1Cl [drawing 15, reference compound]

- solubility (Solubility at pH 7.4; [6]): 630 µg/mL (≈ 1080 µM)
- IC50 [4, 7]: 0.006 µM
Structure (SMILES): Cc1c(F)c(N)cc(C(=O)Nc2cc(-n3cc(NC(=O)C4CCN(C)CC4)nn3)ccc2N2CCN(C)CC2)c1Cl [drawing 16]

- solubility (Solubility at pH 7.4; [6]): 1240 µg/mL (≈ 2170 µM)
- IC50 [4, 7]: 0.0123 µM
Structure (SMILES): Cc1c(F)c(N)cc(C(=O)Nc2cc(-n3cc(NC(=O)C4CCNCC4)nn3)ccc2N2CCN(C)CC2)c1Cl [drawing 18]

- solubility (Solubility at pH 7.4; [8]): 1.9 µg/mL (≈ 3.72 µM)
Structure (SMILES): COC(=O)c1ccc(-c2ccc(N3CCN(C)CC3)c(NC(=O)c3cc(N)c(F)c(C)c3Cl)c2)cc1 [reference compound]

- solubility (Solubility at pH 7.4; [8]): 21 µg/mL (≈ 40.1 µM)
Structure (SMILES): Cc1c(F)c(N)cc(C(=O)Nc2cc(-c3ccc(C(=O)N(C)C)cc3)ccc2N2CCN(C)CC2)c1Cl [reference compound]

- solubility (Solubility at pH 7.4; [8]): 27 µg/mL (≈ 47.7 µM)
Structure (SMILES): Cc1c(F)c(N)cc(C(=O)Nc2cc(-c3ccc(C(=O)N4CCOCC4)cc3)ccc2N2CCN(C)CC2)c1Cl [reference compound]

- solubility (Solubility at pH 7.4; [8]): 3.1 µg/mL (≈ 6.84 µM)
- IC50 [4, 9]: 0.0479 µM
Structure (SMILES): Cc1c(F)c(N)cc(C(=O)Nc2cc(-c3ccccc3)ccc2N2CCN(C)CC2)c1Cl [reference compound]

- solubility (Solubility at pH 7.4; [8]): 54 µg/mL (≈ 91 µM)
Structure (SMILES): Cc1c(F)c(N)cc(C(=O)Nc2cc(-c3ccc(NC(=O)C4CCN(C)CC4)cc3)ccc2N2CCN(C)CC2)c1Cl [reference compound]

- solubility (Solubility at pH 7.4; [8]): 125 µg/mL (≈ 216 µM)
- IC50 [4, 9]: 0.0085 µM
Structure (SMILES): Cc1c(F)c(N)cc(C(=O)Nc2cc(-c3ccc(NC(=O)C4CCNCC4)cc3)ccc2N2CCN(C)CC2)c1Cl [reference compound]

Continued, compound first:

Structure (SMILES): Cc1c(F)c(N)cc(C(=O)Nc2cc(-n3cc(C(=O)N(C)C)nn3)ccc2N2CCN(C)CC2)c1Cl [Example 3, 1-(3-(5-Amino-2-chloro-4-fluoro-3-methylbenzoylamino)-4-(4-methylpiperazin-1-group)phenyl)-N, N-dimethyl-1H-1,2,3 triazole-4-carboxamide]
- GI50 [1]: 22.8 ± 5.5 µM
- GI50 [2]: 44.6 ± 1.3 µM
- GI50 [3]: > 100 µM

Structure (SMILES): Cc1c(F)c(N)cc(C(=O)Nc2cc(-n3cc(C(=O)NC4CCOCC4)nn3)ccc2N2CCN(C)CC2)c1Cl [Example 5, 1-(3-(5-Amino-2-chloro-4-fluoro-3-methylbenzoylamino)-4-(4-methylpiperazin-1-group)phenyl)-N-(tetrahydro-2H-pyran-4-yl)-1H-1,2,3-triazole-4-carboxamide]
- GI50 [3]: 27.5 ± 2.8 µM

Structure (SMILES): Cc1c(F)c(N)cc(C(=O)Nc2cc(-n3cc(C(=O)N4CCN(C)CC4)nn3)ccc2N2CCN(C)CC2)c1Cl [Example 8, 5-amino-2-chloro-4-fluoro-3-ethyl-N-(2-(4-methylpiperazin-1-group)-5-(4-(methylpiperazin-1-Carbonyl)-1H-1,-1H-1,2,3-triazole-1-group) Phenyl)-carboxamide]
- GI50 [3]: 34.1 ± 1.2 µM

Structure (SMILES): Cc1c(F)c(N)cc(C(=O)Nc2cc(-n3cc(C(=O)NCCN4CCOCC4)nn3)ccc2N2CCN(C)CC2)c1Cl [Example 9]
- GI50 [3]: 35.8 ± 2.7 µM

Structure (SMILES): Cc1c(F)c(N)cc(C(=O)Nc2cc(-n3cc(C(=O)NCCCN)nn3)ccc2N2CCN(C)CC2)c1Cl [Example 10]
- GI50 [1]: 13.5 ± 1.2 µM
- IC50 [4, 5]: < 0.01 µM
- GI50 [2]: 13.5 ± 1.2 µM
- GI50 [3]: 13.5 ± 1.2 µM

Structure (SMILES): Cc1c(F)c(N)cc(C(=O)Nc2cc(-n3ccnn3)ccc2N2CCN(C)CC2)c1Cl [Example 11, 5-amino-2-chloro-4-fluoro-3-methyl-N-(2-(4-methylpiperazin-1-group)-5-(1H-1,2,3-triazole-1-group)phenyl) benzamide]
- GI50 [1]: 13.5 ± 1.5 µM
- GI50 [2]: 13.5 ± 1.5 µM
- GI50 [3]: 13.5 ± 1.5 µM

Structure (SMILES): Cc1c(F)c(N)cc(C(=O)Nc2cc(-n3cc(NC(=O)OC(C)(C)C)nn3)ccc2N2CCN(C)CC2)c1Cl [Example 12]
- IC50 [4, 5]: < 0.08 µM
- GI50 [2]: 23.2 ± 3.2 µM

Structure (SMILES): Cc1c(F)c(N)cc(C(=O)Nc2cc(-n3cc(N)nn3)ccc2N2CCN(C)CC2)c1Cl [Example 13, 5-amino-N-(5-(4-amino-1H-1,2,3-triazole-1-group)-2-(4-methylpiperazin-1-group)phenyl)-2-chloro-4-fluoro-3-Methylbenzamide]
- GI50 [1]: 9.2 ± 1.4 µM
- IC50 [4, 5]: < 0.08 µM
- GI50 [2]: 10.1 ± 1.3 µM
- GI50 [3]: 10.5 ± 2 µM

Structure (SMILES): Cc1c(F)c(N)cc(C(=O)Nc2cc(-n3cc(NC(=O)C4CCN(C)CC4)nn3)ccc2N2CCN(C)CC2)c1Cl [Example 14]
- GI50 [1]: 11 ± 2 µM
- IC50 [4, 5]: < 0.01 µM
- GI50 [2]: 9.5 ± 1 µM
- GI50 [3]: 14.1 ± 1.3 µM

Structure (SMILES): COC(=O)c1cn(-c2ccc(N3CCN(C)CC3)c(NC(=O)c3cc(N)c(F)c(C)c3Cl)c2)nn1 [drawing 6]
- solubility (Solubility at pH 7.4; [6]): 20 µg/mL (≈ 39.8 µM)

Structure (SMILES): Cc1c(F)c(N)cc(C(=O)Nc2cc(-n3cc(C(=O)N(C)C)nn3)ccc2N2CCN(C)CC2)c1Cl [drawing 8]
- solubility (Solubility at pH 7.4; [6]): 170 µg/mL (≈ 330 µM)

Structure (SMILES): Cc1c(F)c(N)cc(C(=O)Nc2cc(-n3cc(C(=O)N4CCOCC4)nn3)ccc2N2CCN(C)CC2)c1Cl [drawing 10]
- solubility (Solubility at pH 7.4; [6]): 200 µg/mL (≈ 359 µM)

Structure (SMILES): Cc1c(F)c(N)cc(C(=O)Nc2cc(-n3cc(NC(=O)CCCN)nn3)ccc2N2CCN(C)CC2)c1Cl [drawing 20]
- solubility (Solubility at pH 7.4; [6]): 1300 µg/mL (≈ 2400 µM)
- IC50 [4, 7]: 0.0067 µM

Structure (SMILES): Cc1c(F)c(N)cc(C(=O)Nc2cc(-c3ccc(NC(=O)CCCN)cc3)ccc2N2CCN(C)CC2)c1Cl [drawing 21, reference compound]
- solubility (Solubility at pH 7.4; [8]): 110 µg/mL (≈ 199 µM)
